Assay results reported in patent US20150239889A1, “PYRAZOLOPYRIMIDINE COMPOUND” (MITSUBISHI TANABE PHARMA CORPORATION, priority 2012, published 2015).
Structures can show the parent of a compound that is named as a salt.

Columns and labels:
human HIF-PHD3 = molecular target: T1, human HIF-PHD3 (Homo sapiens, UniProt Q9H6Z9); experiment: HIF-PHD inhibition assay (fluorescence polarization), human HIF-PHD3; format: biochemical; conditions: 2-oxoglutaric acid 166 μmol/L
T1 construct: purchased CrystalGenomics Ltd
T1 sequence (Q9H6Z9 whole entry): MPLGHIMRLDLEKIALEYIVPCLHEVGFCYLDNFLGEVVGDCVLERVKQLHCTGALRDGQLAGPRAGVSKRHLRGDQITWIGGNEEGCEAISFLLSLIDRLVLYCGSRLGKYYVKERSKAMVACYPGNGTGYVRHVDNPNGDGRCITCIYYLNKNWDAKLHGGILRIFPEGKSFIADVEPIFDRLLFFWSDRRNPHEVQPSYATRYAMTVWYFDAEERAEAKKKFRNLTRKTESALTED
Method: (§1) The activity of the test compound to inhibit human HIF-PHD2 and human HIF-PHD3 was determined.
(§2) The value of enzyme activity was calculated by subtracting the value of fluorescence polarization before addition of the enzyme from the value of fluorescence polarization after addition of enzyme (mP value).
(§3) FAM: 5′-fluoresceinamide ACA: aminocaproic acid

human HIF-PHD2 = molecular target: T2, human HIF-PHD2 (Homo sapiens, UniProt Q9GZT9); experiment: HIF-PHD inhibition assay (fluorescence polarization), human HIF-PHD2; format: biochemical; conditions: 2-oxoglutaric acid 3.33 μmol/L
T2 construct: purchased CrystalGenomics Ltd
T2 sequence (Q9GZT9 2-426 limits assumed): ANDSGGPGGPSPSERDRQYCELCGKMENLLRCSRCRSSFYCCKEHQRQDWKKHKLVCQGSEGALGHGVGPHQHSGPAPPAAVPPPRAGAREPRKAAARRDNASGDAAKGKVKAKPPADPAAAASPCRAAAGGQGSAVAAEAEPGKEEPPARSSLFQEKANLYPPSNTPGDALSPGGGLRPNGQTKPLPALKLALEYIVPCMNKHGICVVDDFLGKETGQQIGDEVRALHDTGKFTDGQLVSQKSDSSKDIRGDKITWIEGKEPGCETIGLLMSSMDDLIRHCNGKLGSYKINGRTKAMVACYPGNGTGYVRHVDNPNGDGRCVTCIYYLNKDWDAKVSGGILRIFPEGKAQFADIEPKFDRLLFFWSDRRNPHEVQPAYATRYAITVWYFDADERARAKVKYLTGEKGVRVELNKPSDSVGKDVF
Method: as §1, §2, §3

| Structure (SMILES) | IC50 (human HIF-PHD3) | IC50 (human HIF-PHD2) |
| --- | --- | --- |
| CC1(C)CCCC(n2ncc3nc(-n4cc(C(=O)O)cn4)nc(O)c32)C1 (single isomer, unassigned) [Example 412] | 590 nM | 43 nM |
| CCC1CCCC(n2ncc3nc(-n4cc(C(=O)O)cn4)nc(O)c32)C1 (single isomer, unassigned) [Example 414] | 820 nM | 33 nM |
| CCC1CCCC(n2ncc3nc(-n4cc(C(=O)O)cn4)nc(O)c32)C1 (single isomer, unassigned) [Example 416] | 530 nM | 18 nM |
| CC1(C)CCCC1n1ncc2nc(-n3cc(C(=O)O)cn3)nc(O)c21 (single isomer, unassigned) [Example 418] | 910 nM | 83 nM |
| O=C(O)c1cnn(-c2nc(O)c3c(cnn3CC3CCN(Cc4ccc(F)cc4)CC3)n2)c1 [Example 2, 1-(1-{[1-(4-fluorobenzyl)piperidin-4-yl]methyl}-7-hydroxy-1H-pyrazolo[4,3-d]pyrimidin-5-yl)-1H-pyrazole-4-carboxylic acid hydrochloride] | 1100 nM | 84 nM |
| Cc1ccc2cc(Cn3ncc4nc(-n5cc(C(=O)O)cn5)nc(O)c43)ccc2c1 [Example 33] | 200 nM | 10 nM |
| O=C(O)c1cnn(-c2nc(O)c3c(cnn3Cc3ccc(-c4ccccc4C4CC4)cc3)n2)c1 [Example 60] | 77 nM | 28 nM |
| Cc1cc(Cl)ccc1-c1ccc(Cn2ncc3nc(-n4cc(C(=O)O)cn4)nc(O)c32)cc1 [Example 71] | 110 nM | 16 nM |
| O=C(O)c1cnn(-c2nc(O)c3c(cnn3Cc3ccc(-c4ccc(Cl)cc4Cl)cc3)n2)c1 [Example 72] | 280 nM | 28 nM |
| O=C(O)c1cnn(-c2nc(O)c3c(cnn3Cc3ccc(-c4ccc(C(F)(F)F)cc4Cl)cc3)n2)c1 [Example 73] | 270 nM | 31 nM |
| O=C(O)c1cnn(-c2nc(O)c3c(cnn3Cc3ccc(-c4ccc(Cl)cc4F)cc3)n2)c1 [Example 74] | 72 nM | 20 nM |
| O=C(O)c1cnn(-c2nc(O)c3c(cnn3Cc3ccc(-c4cccc(Cl)c4Cl)cc3)n2)c1 [Example 75] | 120 nM | 20 nM |
| O=C(O)c1cnn(-c2nc(O)c3c(cnn3Cc3ccc(-c4ccc(F)cc4F)cc3F)n2)c1 [Example 82] | 130 nM | 32 nM |
| Cc1cc(-c2ccccc2F)ccc1Cn1ncc2nc(-n3cc(C(=O)O)cn3)nc(O)c21 [Example 88] | 44 nM | 8.6 nM |
| COc1cc(-c2ccccc2F)ccc1Cn1ncc2nc(-n3cc(C(=O)O)cn3)nc(O)c21 [Example 90] | 36 nM | 20 nM |
| Cc1cc(Cn2ncc3nc(-n4cc(C(=O)O)cn4)nc(O)c32)ccc1-c1ccccc1 [Example 92] | 50 nM | 11 nM |
| O=C(O)c1cnn(-c2nc(O)c3c(cnn3Cc3cc(F)c(-c4ccccc4F)cc3F)n2)c1 [Example 100] | 89 nM | 16 nM |
| Cc1cc(Cn2ncc3nc(-n4cc(C(=O)O)cn4)nc(O)c32)c(F)cc1-c1ccccc1F [Example 103] | 220 nM | 18 nM |

| Structure (SMILES) | IC50 (human HIF-PHD3) | IC50 (human HIF-PHD2) |
| --- | --- | --- |
| O=C(O)c1cnn(-c2nc(O)c3c(cnn3CC3(c4ccccc4)CCCC3)n2)c1 [Example 123] | 580 nM | 130 nM |
| O=C(O)c1cnn(-c2nc(O)c3c(cnn3CC3CCC(F)(F)CC3)n2)c1 [Example 143] | 1200 nM | 15 nM |
| C[C@H](C1CCCCC1)n1ncc2nc(-n3cc(C(=O)O)cn3)nc(O)c21 [Example 145] | 1700 nM | 30 nM |
| Cc1cccc(OCCCn2ncc3nc(-n4cc(C(=O)O)cn4)nc(O)c32)c1C [Example 180] | 170 nM | 19 nM |
| O=C(O)c1cnn(-c2nc(O)c3c(cnn3CCCOc3ccc(C4CCCCC4)cc3)n2)c1 [Example 185] | 330 nM | 15 nM |
| COc1cccc(OCCCn2ncc3nc(-n4cc(C(=O)O)cn4)nc(O)c32)c1 [Example 186] | 430 nM | 20 nM |
| Cc1c(OCCCn2ncc3nc(-n4cc(C(=O)O)cn4)nc(O)c32)ccc2c1CCCC2 [Example 190] | 260 nM | 14 nM |
| O=C(O)c1cnn(-c2nc(O)c3c(cnn3CCCOc3ccc4c(c3)CCC4)n2)c1 [Example 195] | 460 nM | 22 nM |
| CC[C@H]1CC[C@H](Cn2nc(F)c3nc(-n4cc(C(=O)O)cn4)nc(O)c32)CC1 [Example 219] | 1400 nM | 11 nM |
| O=C(O)c1cnn(-c2nc(O)c3c(n2)c(Cl)nn3CC2CCCC2)c1 [Example 221] | 670 nM | 44 nM |
| CC(C)(C)[C@H]1CC[C@H](Cn2nc(Cl)c3nc(-n4cc(C(=O)O)cn4)nc(O)c32)CC1 [Example 225] | 150 nM | 22 nM |
| Cc1nn(C2CCCCC2)c2c(O)nc(-n3cc(C(=O)O)cn3)nc12 [Example 227] | 3800 nM | 130 nM |
| Cc1nn(CC2CCCC2)c2c(O)nc(-n3cc(C(=O)O)cn3)nc12 [Example 229] | 2800 nM | 50 nM |
| Cc1nn(CCC2CCCCC2)c2c(O)nc(-n3cc(C(=O)O)cn3)nc12 [Example 231] | 470 nM | 21 nM |
| CCc1nn(CC2CCCCC2)c2c(O)nc(-n3cc(C(=O)O)cn3)nc12 [Example 232] | 1400 nM | 150 nM |
| CC(C)c1nn(CC2CCCCC2)c2c(O)nc(-n3cc(C(=O)O)cn3)nc12 [Example 233] | 2800 nM | 120 nM |
| O=C(O)c1cnn(-c2nc(O)c3nn(CC4(COc5ccc6c(c5)CCCC6)CC4)cc3n2)c1 [Example 249] | 280 nM | 26 nM |

More lines, now with the values ahead:

| IC50 (human HIF-PHD3) | IC50 (human HIF-PHD2) | Structure (SMILES) |
| --- | --- | --- |
| 360 nM | 35 nM | O=C(O)c1cnn(-c2nc(O)c3c(cnn3Cc3cccc4ccccc34)n2)c1 [Example 28] |
| 95 nM | 29 nM | CC(C)c1ccccc1-c1ccc(Cn2ncc3nc(-n4cc(C(=O)O)cn4)nc(O)c32)cc1 [Example 59] |
| 610 nM | 210 nM | CC(C)(Cn1ncc2nc(-n3cc(C(=O)O)cn3)nc(O)c21)c1ccc(Cl)c(Cl)c1 [Example 121] |
| 910 nM | 110 nM | O=C(O)c1cnn(-c2nc(O)c3c(cnn3CC(F)(F)c3ccc(Cl)cc3)n2)c1 [Example 125] |
| 360 nM | 10 nM | O=C(O)c1cnn(-c2nc(O)c3c(cnn3CCCOc3ccc(Cl)cc3)n2)c1 [Example 184] |
| 180 nM | 49 nM | C[C@@H](c1ccc(F)c(Cl)c1)n1ncc2nc(-n3cc(C(=O)O)cn3)nc(O)c21 [Example 250] |
| 470 nM | 55 nM | C[C@@H](c1ccc(F)c(F)c1)n1ncc2nc(-n3cc(C(=O)O)cn3)nc(O)c21 [Example 251] |
| 630 nM | 99 nM | C[C@@H](c1ccc(F)cc1Cl)n1ncc2nc(-n3cc(C(=O)O)cn3)nc(O)c21 [Example 252] |
| 600 nM | 71 nM | C[C@@H](c1cccc(Cl)c1)n1ncc2nc(-n3cc(C(=O)O)cn3)nc(O)c21 [Example 253] |
| 510 nM | 97 nM | C[C@@H](c1cccc(F)c1)n1ncc2nc(-n3cc(C(=O)O)cn3)nc(O)c21 [Example 254] |
| 540 nM | 64 nM | C[C@@H](c1ccc(F)cc1F)n1ncc2nc(-n3cc(C(=O)O)cn3)nc(O)c21 [Example 255] |
| 870 nM | 200 nM | C[C@@H](c1ccccc1Cl)n1ncc2nc(-n3cc(C(=O)O)cn3)nc(O)c21 [Example 257] |
| 420 nM | 38 nM | C[C@@H](c1cccc(C(F)(F)F)c1)n1ncc2nc(-n3cc(C(=O)O)cn3)nc(O)c21 [Example 258] |
| 690 nM | 44 nM | Cc1ccc([C@H](C)n2ncc3nc(-n4cc(C(=O)O)cn4)nc(O)c32)cc1C [Example 259] |
| 950 nM | 48 nM | COc1ccc([C@H](C)n2ncc3nc(-n4cc(C(=O)O)cn4)nc(O)c32)cc1 [Example 260] |
| 360 nM | 29 nM | Cc1cccc([C@H](C)n2ncc3nc(-n4cc(C(=O)O)cn4)nc(O)c32)c1 [Example 262] |
| 780 nM | 160 nM | Cc1ccccc1[C@H](C)n1ncc2nc(-n3cc(C(=O)O)cn3)nc(O)c21 [Example 265] |
| 530 nM | 86 nM | Cc1cc(Cl)cc([C@H](C)n2ncc3nc(-n4cc(C(=O)O)cn4)nc(O)c32)c1 [Example 267] |
| 890 nM | 100 nM | C[C@H](c1cc(Cl)cc(C(F)(F)F)c1)n1ncc2nc(-n3cc(C(=O)O)cn3)nc(O)c21 [Example 268] |
| 370 nM | 42 nM | C[C@@H](c1cc(Cl)cc(C(F)(F)F)c1)n1ncc2nc(-n3cc(C(=O)O)cn3)nc(O)c21 [Example 269] |
| 440 nM | 48 nM | C[C@H](c1ccc(Cl)c(F)c1)n1ncc2nc(-n3cc(C(=O)O)cn3)nc(O)c21 [Example 270] |
| 260 nM | 12 nM | C[C@@H](c1ccc(Cl)c(F)c1)n1ncc2nc(-n3cc(C(=O)O)cn3)nc(O)c21 [Example 271] |
| 980 nM | 79 nM | C[C@@H](c1cc(C(F)(F)F)cc(C(F)(F)F)c1)n1ncc2nc(-n3cc(C(=O)O)cn3)nc(O)c21 [Example 272] |
| 520 nM | 92 nM | C[C@H](c1cc(F)cc(C(F)(F)F)c1)n1ncc2nc(-n3cc(C(=O)O)cn3)nc(O)c21 [Example 273] |
| 380 nM | 38 nM | C[C@@H](c1cc(F)cc(C(F)(F)F)c1)n1ncc2nc(-n3cc(C(=O)O)cn3)nc(O)c21 [Example 274] |
| 920 nM | 120 nM | C[C@@H](c1cc(C(F)(F)F)ccc1C(F)(F)F)n1ncc2nc(-n3cc(C(=O)O)cn3)nc(O)c21 [Example 275] |
| 380 nM | 15 nM | C[C@@H](c1ccc(OC(F)(F)F)cc1)n1ncc2nc(-n3cc(C(=O)O)cn3)nc(O)c21 [Example 276] |
